Test results as given in ChEMBL document CHEMBL4229478, “Synthesis, Characterization, and Biological Evaluation of a Porphyrin-Based Photosensitizer and Its Isomer for Effective Photodynamic Therapy against Breast Cancer” (J Med Chem, 2018).
Calls of active or inactive are those of the source. No cut-off for these calls is given here.

How the values were obtained:
4T1 [1] = experiment: Antitumor activity against mouse 4T1 cells xenografted in BALB/c mouse assessed as inhibition of tumor volume at 2 mg/kg, iv pretreated for 24 hrs followed by 50 J/cm2 light irradiation and measured at day 22 post dose relative to control; format: functional; conditions: 4T1, light or radiation study
MDA-MB-231 [2] = experiment: Phototoxicity against human MDA-MB-231 cells assessed as cell viability at 0.5 uM preincubated for 4 hrs followed by 0.5 to 2 J/cm2 light irradiation and measured after 24 hrs by MTT assay; format: functional, cell-based
Mus musculus [3] = experiment: Hepatotoxicity in BALB/c mouse xenografted with mouse 4T1 cells assessed as pathological changes in liver at 1 to 4 mg/kg, iv pre-tretaed for 24 hrs followed by 50 J/cm2 light irradiation and measured at day 22 post dose by hematoxylin and eosin staining based light microscopic analysis; format: toxicity, organism-based; conditions: in vivo
Mus musculus [4] = experiment: Toxicity in BALB/c mouse xenografted with mouse 4T1 cells assessed as effect on body weight at 1 mg/kg, iv pre-tretaed for 24 hrs followed by 50 J/cm2 light irradiation and measured at day 22 post dose; format: organism-based; conditions: in vivo
[5] = Drug uptake in mitochondria of human MDA-MB-231 cells at 10 uM after 4 hrs by Mito tracker green-based confocal laser scanning microscopic analysis; format: ADME; conditions: mda-mb-231, 4 h
MDA-MB-231 [6] = experiment: Induction of apoptosis in human MDA-MB-231 cells assessed as necrotic cells after 24 hrs by Annexin-V FITC/propidium iodide staining based flow cytometric analysis (reference value: 4.24%); format: cell-based; conditions: mda-mb-231, 24 h
Mus musculus [7] = experiment: Toxicity in BALB/c mouse xenografted with mouse 4T1 cells assessed as effect on body weight at 4 mg/kg, iv pre-tretaed for 24 hrs followed by 50 J/cm2 light irradiation and measured at day 22 post dose; format: organism-based; conditions: in vivo
4T1 [8] = experiment: Antitumor activity against mouse 4T1 cells xenografted in BALB/c mouse assessed as inhibition of tumor volume at 4 mg/kg, iv pretreated for 24 hrs followed by 50 J/cm2 light irradiation and measured at day 22 post dose relative to control; format: functional; conditions: 4T1, light or radiation study
MDA-MB-231 [9] = experiment: Induction of ROS generation in human MDA-MB-231 cells incubated with DCF-DA probe for 30 mins prior to ROS scavenger NAC addition 1 hr before 2 J/cm2 light irradiation and measured after 1 hr post irradiation by flow cytometric analysis; format: functional, cell-based
Mus musculus [10] = experiment: Toxicity in BALB/c mouse xenografted with mouse 4T1 cells assessed as pathological changes in spleen at 1 to 4 mg/kg, iv pre-tretaed for 24 hrs followed by 50 J/cm2 light irradiation and measured at day 22 post dose by hematoxylin and eosin staining based light microscopic analysis; format: organism-based; conditions: in vivo
[11] = Drug uptake in human MDA-MB-231 cells at 5 uM after 4 hrs by fluorescence microscopic analysis; format: ADME, cell-based; conditions: mda-mb-231, 4 h
[12] = Induction of apoptosis in human MDA-MB-231 cells assessed as viable cells after 24 hrs by Annexin-V FITC/propidium iodide staining based flow cytometric analysis (reference value: 93.27%); format: cell-based; conditions: read-out: Activity
HUVEC = experiment: Phototoxicity against HUVEC assessed as cell viability at 0.5 uM preincubated for 4 hrs followed by 0.5 to 2 J/cm2 light irradiation and measured after 24 hrs by MTT assay; format: cell-based; conditions: human
Mus musculus [13] = experiment: Nephrotoxicity in BALB/c mouse xenografted with mouse 4T1 cells assessed as pathological changes in kidney at 1 to 4 mg/kg, iv pre-tretaed for 24 hrs followed by 50 J/cm2 light irradiation and measured at day 22 post dose by hematoxylin and eosin staining based light microscopic analysis; format: toxicity, organism-based; conditions: in vivo
MDA-MB-231 [14] = experiment: Induction of apoptosis in human MDA-MB-231 cells assessed as early apoptotic cells after 24 hrs by Annexin-V FITC/propidium iodide staining based flow cytometric analysis (reference value: 1.22%); format: cell-based; conditions: mda-mb-231, 24 h
4T1 [15] = experiment: Phototoxicity against mouse 4T1 cells assessed as cell viability at 0.5 uM preincubated for 4 hrs followed by 2 J/cm2 light irradiation and measured after 24 hrs by MTT assay relative to control; format: functional; conditions: 4T1, light or radiation study, read-out: Activity
4T1 [16] = experiment: Phototoxicity against mouse 4T1 cells assessed as cell viability at 0.5 uM preincubated for 4 hrs followed by 0.5 J/cm2 light irradiation and measured after 24 hrs by MTT assay relative to control; format: functional; conditions: 4T1, light or radiation study, read-out: Activity
MDA-MB-231 [17] = experiment: Induction of apoptosis in human MDA-MB-231 cells assessed as late apoptotic cells after 24 hrs upon light irradiation by Annexin-V FITC/propidium iodide staining based flow cytometric analysis (reference value: 1.28%); format: functional
[18] = Drug uptake in lysosome of human MDA-MB-231 cells at 10 uM after 4 hrs by Lyso tracker green-based confocal laser scanning microscopic analysis; format: ADME, subcellular; conditions: mda-mb-231, 4 h
[19] = Dark toxicity against human MCF7 cells assessed as cell viability at 0.5 uM after 24 hrs by MTT assay; format: cell-based; conditions: mcf7, 24 h
4T1 [20] = experiment: Antitumor activity against mouse 4T1 cells xenografted in BALB/c mouse assessed as inhibition of tumor weight at 1 to 4 mg/kg, iv pretreated for 24 hrs followed by 50 J/cm2 light irradiation and measured at day 22 post last dose; format: functional, organism-based
4T1 [21] = experiment: Phototoxicity against mouse 4T1 cells assessed as cell viability at 0.5 uM preincubated for 4 hrs followed by 1 J/cm2 light irradiation and measured after 24 hrs by MTT assay relative to control; format: functional; conditions: 4T1, light or radiation study, read-out: Activity
Mus musculus [22] = experiment: Hepatotoxicity in BALB/c mouse xenografted with mouse 4T1 cells assessed as pathological changes in liver at 4 mg/kg, iv measured at day 22 post dose by hematoxylin and eosin staining based light microscopic analysis; format: toxicity, organism-based; conditions: in vivo
MCF7 = experiment: Phototoxicity against human MCF7 cells assessed as cell viability at 0.5 uM preincubated for 4 hrs followed by 0.5 to 2 J/cm2 light irradiation and measured after 24 hrs by MTT assay; format: functional, cell-based
[23] = Drug uptake in endoplasmic reticulum of human MDA-MB-231 cells at 10 uM after 4 hrs by ER tracker green-based confocal laser scanning microscopic analysis; format: ADME, subcellular; conditions: mda-mb-231, 4 h
Mus musculus [24] = experiment: Toxicity in BALB/c mouse xenografted with mouse 4T1 cells assessed as pathological changes in lung at 4 mg/kg, iv measured at day 22 post dose by hematoxylin and eosin staining based light microscopic analysis; format: organism-based; conditions: in vivo
Mus musculus [25] = experiment: Hepatotoxicity in BALB/c mouse xenografted with mouse 4T1 cells assessed as pathological changes in liver at 4 mg/kg, iv pre-tretaed for 24 hrs followed by 50 J/cm2 light irradiation and measured at day 22 post dose by hematoxylin and eosin staining based light microscopic analysis; format: toxicity, organism-based; conditions: in vivo
MDA-MB-231 [26] = experiment: Induction of apoptosis in human MDA-MB-231 cells assessed as necrotic cells after 24 hrs upon light irradiation by Annexin-V FITC/propidium iodide staining based flow cytometric analysis (reference value: 4.24%); format: functional
[27] = Selectivity index, ratio of dark toxicity against mouse 4T1 cells at 0.5 uM to phototoxicity against mouse 4T1 cells at 0.5 uM; format: cell-based; conditions: read-out: Selectivity Index
[28] = Selectivity index, ratio of dark toxicity against human MCF7 at 0.5 uM cells to phototoxicity against human MCF7 cells at 0.5 uM; format: cell-based; conditions: read-out: Selectivity Index
4T1 [29] = experiment: Antitumor activity against mouse 4T1 cells xenografted in BALB/c mouse assessed as induction of tissue destruction with large spaces at 4 mg/kg, iv pretreated for 24 hrs followed by 50 J/cm2 light irradiation by hematoxylin and eosin staining based light microscopic analysis; format: functional, organism-based

Row | SMILES | inhibition in vivo at 2 mg/kg (4T1 [1]) | Activity (MDA-MB-231 [2]) | Activity (Mus musculus [3]) | Activity (Mus musculus [4]) | Drug uptake [5] | Activity (MDA-MB-231 [6]) | Activity (Mus musculus [7]) | inhibition in vivo at 4 mg/kg (4T1 [8]) | Activity (MDA-MB-231 [9]) | Activity (Mus musculus [10]) | Drug uptake [11] | viability at 24 h [12] | Activity (HUVEC) | Activity (Mus musculus [13]) | Activity (MDA-MB-231 [14]) | viability at 0.5 µM (4T1 [15]) | viability at 0.5 µM (4T1 [16]) | Activity (MDA-MB-231 [17]) | Drug uptake [18] | Activity [19] | also measured
1 | C=CC1=C(C)c2cc3[nH]c(cc4nc(cc5[nH]c(cc1n2)c(C)c5CCC(=O)[O-])C(CCC(=O)[O-])=C4C)c(C)c3C(C)OCCCCCC.[Na+].[Na+] (configuration not stated) | 28% | Active | Non-Toxic | Non-Toxic | Active | 0.4% | Non-Toxic | 45.4% | inactive | Non-Toxic | Active | 92.8% | Non-Toxic | Non-Toxic | 4.02% | 54.6% | 98% | 40.09% | Active | Non-Toxic | inhibition (4T1 [20]): Active; viability at 0.5 µM (4T1 [21]): 76.1%; Activity (Mus musculus [22]): Non-Toxic; Activity (MCF7): Active; Drug uptake [23]: Active; Activity (Mus musculus [24]): Non-Toxic; Activity (Mus musculus [25]): Non-Toxic; Activity (MDA-MB-231 [26]): 11.12%; selectivity ratio at 0.5 µM [27]: 21.7; selectivity ratio at 0.5 µM [28]: 24.2; Activity (4T1 [29]): Active
2 | C=Cc1c(C)c2cc3nc(cc4[nH]c(cc5nc(cc1[nH]2)C(C)=C5C(C)OCCCCCC)c(C)c4CCC(=O)[O-])C(CCC(=O)[O-])=C3C.[Na+].[Na+] (configuration not stated) | 43% | Active | Non-Toxic | Non-Toxic | Active | 0.58% | Non-Toxic | 65.4% | inactive | Non-Toxic | Active | 93.4% | Non-Toxic | Non-Toxic | 3.72% | 47.3% | 86.4% | 53.54% | Active | Non-Toxic | inhibition (4T1 [20]): Active; viability at 0.5 µM (4T1 [21]): 61.7%; Activity (Mus musculus [22]): Non-Toxic; Activity (MCF7): Active; Drug uptake [23]: Active; Activity (Mus musculus [24]): Non-Toxic; Activity (Mus musculus [25]): Non-Toxic; Activity (MDA-MB-231 [26]): 10.12%; selectivity ratio at 0.5 µM [27]: 68.5; selectivity ratio at 0.5 µM [28]: 90.8; Activity (4T1 [29]): Active
